Literature values in US12533334B2, “Compositions and methods for modulating equine fatty acid profiles” (KENTUCKY EQUINE RESEARCH, INC., priority 2021, dated 2026).

System: aspirin-induced gastric hemorrhage
Conditions: rats subjected to aspirin-induced gastric hemorrhage, dietary supplementation

Compound	Gastric hemorrhage
CCCCC/C=C\C/C=C\C/C=C\CCCCC(=O)O [GLA, gamma linolenic acid]	no gastric hemorrhage
CCCCC/C=C\C/C=C\CCCCCCCC(=O)O [LA, linoleic acid]	3 of 8
